Where a name gives a salt, the structure may show the parent alone.
melting point [°C] | Structure (SMILES)
173 to 174 | CCC(CC)(NC(=O)c1c(C)nn2c1NC(c1ccccc1Cl)CC2(C)C)c1ccc(C)cc1 (stereo not shown) (as salt: HCl) [Example 968, 5-(2-chlorophenyl)-N-(1-ethyl-1-(4-methylphenyl)propyl)-2,7,7-trimethyl-4,5,6,7-tetrahydropyrazolo[1,5-a]pyrimidine-3-carboxamide]
204 to 205 | Cc1nn2c(c1C(=O)NC(C)(C)c1ccc(Cl)cc1)NC(c1ccccc1)CC2(C)C (stereo not shown) (as salt: HCl) [Example 792, N-(1-(4-chlorophenyl)-1-methylethyl)-2,7,7-trimethyl-5-phenyl-4,5,6,7-tetrahydropyrazolo[1,5-a]pyrimidine-3-carboxamide]
226 to 227 | CC1(C)C[C@H](c2ccccc2)Nc2c(C(=O)NC34CC5CC(CC(C5)C3)C4)cnn21 [Example 1030, (5R)-N-1-adamantyl-7,7-dimethyl-5-phenyl-4,5,6,7-tetrahydropyrazolo[1,5-a]pyrimidine-3-carboxamide]
241 to 243 | COc1ccc(C2CC(C(F)(F)F)n3ncc(C(=O)NC45CC6CC(CC(C6)C4)C5)c3N2)cc1 (stereo not shown) [Example 202, N-(1-adamantyl)-5-(4-methoxyphenyl)-7-(trifluoromethyl)-4,5,6,7-tetrahydropyrazolo[1,5-a]pyrimidine-3-carboxamide]
213 to 214 | CCC(CC)(NC(=O)c1cnn2c1NC(c1ccccc1)C1CCCCC12)c1ccc(C(F)(F)F)cc1 (stereo not shown) [Example 201, N-(1-ethyl-1-(4-(trifluoromethyl)phenyl)propyl)-5-phenyl-4,5,5a,6,7,8,9,9a-octahydropyrazolo[1,5-a]quinazoline-3-carboxamide]
149 to 150 | CCC(CC)(NC(=O)c1c(C)nn2c1NC(c1ccccc1)CC2(C)C)c1ccc(SC)cc1 (stereo not shown) [Example 833, N-(1-ethyl-1-(4-(methylthio)phenyl)propyl)-2,7,7-trimethyl-5-phenyl-4,5,6,7-tetrahydropyrazolo[1,5-a]pyrimidine-3-carboxamide]
156 to 157 | O=C(O)c1cnn2c1NC(c1ccco1)CC2C(F)(F)F (stereo not shown) [Example 29, 5-(2-furyl)-7-(trifluoromethyl)-4,5,6,7-tetrahydropyrazolo[1,5-a]pyrimidine-3-carboxylic acid]
140 to 142 | CCC1(NC(=O)c2cnn3c2NC(c2ccccc2)CC3(C)C)CCCC1 (stereo not shown) (as salt: HCl) [Example 588, N-(1-ethylcyclopentyl)-7,7-dimethyl-5-phenyl-4,5,6,7-tetrahydropyrazolo[1,5-a]pyrimidine-3-carboxamide]
216 to 217 | O=C(On1nnc2ccccc21)c1cnn2c1N[C@H](c1ccccc1)C[C@@H]2C(F)(F)F (stereo in doubt) [Example 372, 1-(((5-phenyl-7-(trifluoromethyl)-4,5,6,7-tetrahydropyrazolo[1,5-a]pyrimidin-3-yl)carbonyl)oxy)-1H-1,2,3-benzotriazole]
84 to 85 | CCC(CC)(CCC(F)(F)F)NC(=O)c1cnn2c1NC(c1ccccc1)CC2(C)C (stereo not shown) [Example 698, N-(1,1-diethyl-4,4,4-trifluorobutyl)-7,7-dimethyl-5-phenyl-4,5,6,7-tetrahydropyrazolo[1,5-a]pyrimidine-3-carboxamide]
151 to 152 | CCC(CC)(NC(=O)c1cnn2c1N[C@@H](c1ccccc1)CC2(C)C)c1ccc(SC)cc1 [Example 1067, (5R)-N-(1-ethyl-1-(4-(methylthio)phenyl)propyl)-7,7-dimethyl-5-phenyl-4,5,6,7-tetrahydropyrazolo[1,5-a]pyrimidine-3-carboxamide]
195 to 196 | CCC(CC)(NC(=O)c1cnn2c1NC(c1ccccc1)CC2(C)C)c1cccc(Br)c1 (stereo not shown) [Example 613, N-(1-(3-bromophenyl)-1-ethylpropyl)-7,7-dimethyl-5-phenyl-4,5,6,7-tetrahydropyrazolo[1,5-a]pyrimidine-3-carboxamide]
173 to 175 | CCC1(CC)C[C@H](OCc2ccccc2)CN1C(=O)c1cnn2c1N[C@@H](c1ccccc1)CC2(C)C [Example 1107, (5R)-3-(((4S)-4-(benzyloxy)-2,2-diethy-1-pyrrolidinyl)carbonyl)-7,7-dimethyl-5-phenyl-4,5,6,7-tetrahydropyrazolo[1,5-a]pyrimidine]
120 to 122 | CCOC(=O)c1cnn2c1NC(c1ccc3ccccc3c1)CC2C(F)(F)F (stereo not shown) [Example 2, ethyl 5-(2-naphthyl)-7-(trifluoromethyl)-4,5,6,7-tetrahydropyrazolo[1,5-a]pyrimidine-3-carboxylate]
142 to 143 | CCC(CC)(NC(=O)c1cnn2c1N(Cc1ccccc1)C(c1ccccc1)CC2(C)C)c1ccc(C)cc1 (stereo not shown) [Example 765, 4-benzyl-N-(1-ethyl-1-(4-methylphenyl)propyl)-7,7-dimethyl-5-phenyl-4,5,6,7-tetrahydropyrazolo[1,5-a]pyrimidine-3-carboxamide]
115 to 117 | CCC(CC)(NC(=O)c1c(OCCO)nn2c1NC(c1ccccc1)CC2(C)C)c1ccc(C)cc1 (stereo not shown) [Example 975, N-(1-ethyl-1-(4-methylphenyl)propyl)-2-(2-hydroxyethoxy)-7,7-dimethyl-5-phenyl-4,5,6,7-tetrahydropyrazolo[1,5-a]pyrimidine-3-carboxamide]
213 to 214 | COC(=O)C1(NC(=O)c2cnn3c2N[C@H](c2ccccc2)C[C@@H]3C(F)(F)F)CCCCC1 (stereo in doubt) [Example 367, methyl 1-(((5-phenyl-7-(trifluoromethyl)-4,5,6,7-tetrahydropyrazolo[1,5-a]pyrimidin-3-yl)carbonyl)amino)cyclohexane carboxylate]

Further lines, the molecule ahead of its results:

Structure (SMILES) | melting point [°C]
CCC(CC)(NC(=O)c1cnn2c1NC(c1ccccc1)CC2(C)C)c1ccc(COC(C)=O)cc1 (stereo not shown) [Example 737, 4-(1-(((7,7-dimethyl-5-phenyl-4,5,6,7-tetrahydropyrazolo[1,5-a]pyrimidin-3-yl)carbonyl)amino)-1-ethylpropyl)benzyl acetate] | 185 to 186
CC1CC(c2ccccc2)Nc2c(C(=O)O)cnn21 (stereo not shown) [Example 27, 7-methyl-5-phenyl-4,5,6,7-tetrahydropyrazolo[1,5-a]pyrimidine-3-carboxylic acid] | 165 to 167
CCC(CC)(NC(=O)c1cnn2c1NC(c1ccccc1)CC2(C)C)c1ccc(N(C)C)cc1 (stereo not shown) [Example 778, N-(1-(4-(dimethylamino)phenyl)-1-ethylpropyl)-7,7-dimethyl-5-phenyl-4,5,6,7-tetrahydropyrazolo[1,5-a]pyrimidine-3-carboxamide] | 128 to 129
COC(=O)C1(NC(=O)c2cnn3c2NC(c2ccccc2)CC3(C)C)CCCCC1 (stereo not shown) [Example 624, methyl 1-(((7,7-dimethyl-5-phenyl-4,5,6,7-tetrahydropyrazolo[1,5-a]pyrimidin-3-yl)carbonyl)amino)cyclo-hexanecarboxylate] | 184 to 185
CCC(NC(=O)c1cnn2c1NC(c1ccccc1)CC2C(F)(F)F)c1ccccc1Br (stereo not shown) [Example 401, N-(1-(2-bromophenyl)propyl)-5-phenyl-7-(trifluoromethyl)-4,5,6,7-tetrahydropyrazolo[1,5-a]pyrimidine-3-carboxamide] | 236 to 237
CCC(CC)(NC(=O)c1cnn2c1NC(c1ccccc1)CC2(C)C)c1ccc(C(=O)O)cc1 (stereo not shown) [Example 734, 4-(1-(((7,7-dimethyl-5-phenyl-4,5,6,7-tetrahydropyrazolo[1,5-a]pyrimidin-3-yl)carbonyl)amino)-1-ethylpropyl)benzoic acid] | 257 to 258
CCC(CC)(Cc1ccc(OC)cc1)NC(=O)c1cnn2c1NC(c1ccccc1)CC2(C)C (stereo not shown) [Example 704, N-(1-ethyl-1-(4-methoxybenzyl)propyl)-7,7-dimethyl-5-phenyl-4,5,6,7-tetrahydropyrazolo[1,5-a]pyrimidine-3-carboxamide] | 185 to 186
CCC(CC)(NC(=O)c1c(C)nn2c1N[C@@H](c1ccccc1)CC2(C)C)c1ccc(O)cc1 [Example 1064, (5R)-N-(1-ethyl-1-(4-hydroxyphenyl)propyl)-2,7,7-trimethyl-5-phenyl-4,5,6,7-tetrahydropyrazolo[1,5-a]pyrimidine-3-carboxamide] | 160 to 161
CCC(CC)(c1ccc(C)cc1)c1nnc(-c2c(C)nn3c2N[C@@H](c2ccccc2)CC3(C)C)s1 [Example 1143, (5R)-3-(5-(1-ethyl-1-(4-methylphenyl)propyl)-1,3,4-thiadiazol-2-yl)-2,7,7-trimethyl-5-phenyl-4,5,6,7-tetrahydropyrazolo[1,5-a]pyrimidine] | 132 to 134
Cc1nn2c(c1C(=O)O)NC(c1ccc(F)cc1)CC2(C)C (stereo not shown) [Example 948, 5-(4-fluorophenyl)-2,7,7-trimethyl-4,5,6,7-tetrahydropyrazolo[1,5-a]pyrimidine-3-carboxylic acid] | 173 to 174
CCCC(=O)Oc1ccc(C(CC)(CC)NC(=O)c2cnn3c2NC(c2ccccc2)CC3(C)C)cc1 (stereo not shown) [Example 760, 4-(1-(((7,7-dimethyl-5-phenyl-4,5,6,7-tetrahydropyrazolo[1,5-a]pyrimidin-3-yl)carbonyl)amino)-1-ethylpropyl)phenyl butyrate] | 148 to 149
CCC1(CC)C[C@H](O)CN1C(=O)c1cnn2c1N[C@@H](c1ccccc1)CC2(C)C [Example 1117, (3S)-1-(((5R)-7,7-dimethyl-5-phenyl-4,5,6,7-tetrahydropyrazolo[1,5-a]pyrimidin-3-yl)carbonyl)-5,5-diethyl-3-pyrrolidinol] | 249 to 251
O=C(NCC(=O)c1cccc2ccccc12)c1cnn2c1N[C@H](c1ccccc1)C[C@@H]2C(F)(F)F (stereo in doubt) [Example 286, N-(2-(1-naphthyl)-2-oxoethyl)-5-phenyl-7-(trifluoromethyl)-4,5,6,7-tetrahydropyrazolo[1,5-a]pyrimidine-3-carboxamide] | 141 to 142
CCc1ccc(C(CC)(CC)NC(=O)c2cnn3c2N[C@@H](c2ccccc2)CC3(C)C)cc1 (as salt: HCl) [Example 1051, (5R)-N-(1-ethyl-1-(4-ethylphenyl)propyl)-7,7-dimethyl-5-phenyl-4,5,6,7-tetrahydropyrazolo[1,5-a]pyrimidine-3-carboxamide] | 149 to 150
